Experimental data: US20220356163A1, “SMALL MOLECULE INHIBITORS OF Id PROTEINS” (MEMORIAL SLOAN KETTERING CANCER CENTER, priority 2019, published 2022)
Values joined by “and” are separate entries in the source; they are usually repeats but may differ in a detail not shown here. Identical values can stand only once.

How the values were obtained:
[1] = system: ID1, ID2, ID3 and ID4; assay: Western blot for ID1-ID4 in HCT116 cells; format: cell-based; details: 40 μM, 0-48 hours
Description: Immunoblotting. For immunoblotting, cells were collected by trypsinization, washed with PBS and lysed in homogenization buffer (0.3 M sucrose, 10 mM Tris (pH 8.0), 400 mM sodium chloride, 3 mM magnesium chloride, 0.5% NP40/IGEPAL, 100 μg/mL Aprotinin+Protease inhibitor cocktail (Roche #11 836 153 001). Proteins were separated by SDS-PAGE, transferred to a membrane (LI-COR), probed with primary antibodies overnight at 4° C., and probed with secondary antibodies (LI-COR) for 1-2 hours at room temperature. Proteins were visualized using the LI-COR Odyssey Infrared Imaging detection system. The following primary antibodies were used Id1, Id2, Id3, Id4 (195-14, 9-2-8, 17-3, 82-12, respectively, all from Biocheck), Cyclin D1 (2978, Cell Signaling), Actin (A2066, Sigma), Tubulin (T4026, Sigma). Western blot quantification was carried out using channel 700 and channel 800 intensity data from Odyssey application software version 3.0.30 (LI-COR), subtracting blank values and normalizing to Tubulin.
The activity of AGX51 was tested on primary human umbilical vein endothelial cells (HUVECs) and the HCT116 colorectal cancer cell line, two cell types with different ID1-4 expression profiles. […] The effects of AGX51 on ID3 loss in HUVECs was diminished in the 20-40 μM range compared with ID1, consistent with the weaker perturbation observed in the CD spectra.

[2] = system: E protein binding; assay: EMSA on whole cell lysates from HCT116 cells; format: cell-based; details: 24 hours treatment
Description: Electrophoretic mobility shift assays. To test the activity of compounds identified in the in silico screen, full-length E47 was purified from bacteria and mixed with a P^32 labeled E-box sequence derived from the muscle creatine kinase (MCK) enhancer, BSA, DTT, poly dI-dC, salmon sperm, and HeLa nuclear extract, in the presence or absence of purified full-length Id1. Increasing concentrations of the various test compounds dissolved in DMSO or DMSO alone were added to the reaction mixes for 30 minutes, resolved on a 5% non-denaturing polyacrylamide gel, and autoradiographed. Electrophoretic mobility shift assays (EMSAs) were carried out on whole cell lysates from AGX51-treated cells and the EMSA was performed as described previously (Tournay and Benezra, Mol Cell Biol, 16: 2418-30 (1996)).
Without being bound by theory, it was hypothesized that loss of Id proteins in response to AGX51 should result in an increase in E protein binding activity assuming little interference of the compound with the E proteins themselves. […] To determine if loss of Id activity precedes Id protein loss, EMSAs were carried out using cell lysates from HCT116 cells treated with AGX51 for one hour.

[3] = Pharmacokinetics in serum after i.p. injection; format: in vivo, mouse
Description: Pharmacokinetic analyses. To determine the pharmacokinetic parameters of AGX51, eight-week old male Balb/c mice (Taconic farms) were dosed once by i.p. injection with 30 mg/kg, 50 mg/kg or 100 mg/kg AGX51 prepared in 70% DMSO (n=3 mice per group). Another set of three mice was dosed with 100 mg/kg AGX51 prepared in 100% DMSO. Blood was collected at 30 minutes, 1 hour, 3 hours, 6 hours and 24 hours post AGX51 administration and plasma analyzed via LC-MS as per the protocol previously validated in the MSKCC Antitumor Assessment Core Facility. Following blood collection, the mice were sacrificed via CO2 asphyxiation and the eyes from the 30 mg/kg treatment group were collected and flash frozen for analysis. Data obtained from LC-MS was analyzed via WinNonLin software (version 8.1) for pharmacokinetic parameters.
The determination of the feasibility of administering AGX51 systemically for the treatment of ocular retinopathies was next explored. To determine the half-life of AGX51 in serum, mice were treated by intraperitoneal (i.p.) injection with a single dose of 30 mg/kg or 50 mg/kg AGX51 in 70% DMSO and blood was collected over a 24-hour period. […] Thus, 70% formulations were used in all future studies.

[4] = system: choroidal neovascularization; assay: Laser-induced choroidal neovascularization (CNV) model of AMD; format: in vivo, mouse
Source text: Mouse mode/s of ocular neovascularization. CNV was induced as previously described. Tobe et al., Am. J. Pathol., 153, 1641-1646 (1998). Briefly, 4-6 week-old female Id1^−/− or Id3^−/− mice and littermate control Id1^+/+ or Id3^+/+ mice (all in C57BL/6 background) had laser-induced rupture of Bruch's membrane at three locations in each eye and after 14 days mice were euthanized, eyes were removed, and choroidal flat mounts were stained with FITC-labeled Griffonia simplicifolia lectin (Vector Laboratories, Burlingame, Calif.) which selectively stains vascular cells (n=12 mice per group). Flat mounts were examined by fluorescence microscopy and the area of each CNV was measured by image analysis with Image-Pro Plus software (Media Cybernetics, Silver Spring, Md.) by an observer masked with respect to experimental groups. In other experiments, wild type 4-6 week-old, female, C57BL/6 mice had rupture of Bruch's membrane in each eye followed by intravitreal injection of 1-30 μg of AGX51 (racemic, E1 or E2) or vehicle in one eye immediately and after 7 days or mice were given twice daily i.p. injections of 500 μg of AGX51 or vehicle for 14 days (n=7-10 mice per group). The area of CNV was measured 14 days after rupture of Bruch's membrane. For Aflibercept and AGX-A treatment experiments, rupture of Bruch's membrane was carried out and then mice were treated with 40 μg of Aflibercept, 10 μg of AGX51E2, 1-5 μg of AGX51, 1-5 μg of AGX-A, DMSO or combinations. The mice were 4-6 week-old female C57BL/6. After 14 days, the mice were euthanized and CNV was measured as described above.

Compound	ID protein levels [1]	E protein binding in cell lysates [2]	mean maximum serum concentration ([3]; 30 mg/kg i.p., 70% DMSO)	mean maximum serum concentration ([3]; 50 mg/kg i.p., 70% DMSO)	mean maximum serum concentration vs lower doses ([3]; 100 mg/kg i.p., 70% DMSO)	mean serum concentration ([3]; 100 mg/kg i.p., 100% DMSO) [µM]	CNV area relative to vehicle control ([4]; i.p. 50 μL of 10 mg/mL bid, day 14)	CNV area ([4]; intravitreal 5 μg, days 1 and 7, p<0.05)	Id1 immunofluorescence in CNV regions ([4]; intravitreal injection)	CNV area relative to vehicle ([4]; twice daily i.p. injections (~30 mg/kg), p<0.05)	CNV area relative to vehicle ([4]; two intravitreal injections of 10 μg (2 h and 7 days), day 14, p<0.05)	CNV area, AGX-A vs AGX51 ([4]; intravitreal 1 μg dose)
CCC(=O)N(CCC(c1ccc2c(c1)OCO2)c1ccccc1OC)Cc1ccccc1 (racemic) [AGX51, N-(3-(benzo[d][1,3]dioxol-5-yl)-3-(2-methoxyphenyl)propyl)-N-benzylpropionamide]	reduced levels of ID1, 1D2, ID3 and ID4	small increase in E protein binding	1.1 μg/mL and 2.7 μM	1.6 μg/mL and 4 μM	not increased further	~12	reduced CNV area significantly	effective at significantly reducing CNV	no Id1 positive cells	significantly reduced CNV	significantly suppressed CNV	–
COc1ccccc1C(CCNCc1ccccc1)c1ccc(OC(C)C)cc1 (stereo not drawn) [AGX-A, N-benzyl-3-(4-isopropoxyphenyl)-3-(2-methoxyphenyl)propan-1-anine]	–	–	–	–	–	–	–	–	–	–	–	performed better than AGX51
